Assay results as given in patent publication US20100267561A1, “HERBICIDAL PYRIDAZINONE DERIVATIVES” (priority 2007, published 2010).

Experiments:
Assay in all cases: Test B pre-/postemergence plant response
Type in all cases: in vivo
[1] = test system: Italian ryegrass (Lolium multiflorum)
Outline: (§1)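 Preemergence and postemergence (plants 2-18 cm, 1- to 4-leaf stage) applications used test chemicals in a non-phytotoxic solvent with surfactant. Plants were held in a greenhouse 13 to 15 days, then rated visually against controls on a 0-100 scale (0 no effect, 100 complete control).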

[2] = test system: Russian thistle (Salsola iberica); conditions: Preemergence
Outline: as §1

[3] = test system: catchweed bedstraw (Galium aparine); conditions: Preemergence; for Galium plant response rating: scale 0 to 100
Outline: as §1

[4] = test system: cocklebur (Xanthium strumarium); conditions: for Cocklebur plant response rating: 8 g ai/ha
Outline: as §1

[5] = test system: common ragweed (Ambrosia elation)
Outline: as §1

corn (Zea mays) = test system: corn (Zea mays)
Outline: as §1

[6] = test system: eastern black (E.B.) nightshade (Solanum ptycanthum); conditions: Preemergence
Outline: as §1

[7] = test system: green foxtail (Setaria viridis)
Outline: as §1

[8] = test system: lambsquarters (Chenopodium album)
Outline: as §1

[9] = test system: morningglory (Ipomoea coccinea)
Outline: as §1

[10] = test system: surinam grass (Brachiaria decumbens)
Outline: as §1

wild oat (Avena fatua) = test system: wild oat (Avena fatua)
Outline: as §1

[11] = test system: yellow nutsedge (Cyperus esculentus)
Outline: as §1

kochia (Kochia scoparia) = conditions: for Plant response rating, Kochia: Postemergence
Outline: as §1

[12] = Preemergence, 31 g ai/ha, scale 0 to 100 (0 no effect, 100 complete control)
[13] = Preemergence, 62 g ai/ha, 0 to 100 scale, 0 no effect, 100 complete control
[14] = Preemergence, 8 g ai/ha, scale 0 to 100
[15] = Preemergence, 16 g ai/ha, scale 0 to 100
[16] = 31 g ai/ha, scale 0 to 100 (0 no effect, 100 complete control)
[17] = 62 g ai/ha, 0 to 100 scale, 0 no effect, 100 complete control
[18] = Preemergence, 16 g ai/ha, scale 0 to 100 (0 no effect, 100 complete control)
[19] = 8 g ai/ha, postemergence, 0-100 scale
[20] = Postemergence, 16 g ai/ha, scale 0 to 100
[21] = Postemergence, 31 g ai/ha, scale 0 to 100, 0 no effect, 100 complete control
[22] = Postemergence, 62 g ai/ha, scale 0 to 100, 0 no effect, 100 complete control
[23] = Preemergence, 31 g ai/ha, 0 to 100 scale, 0 no effect, 100 complete control
[24] = Preemergence, 62 g ai/ha, scale 0 to 100
[25] = 16 g ai/ha, scale 0 to 100 (0 no effect, 100 complete control)
[26] = 31 g ai/ha, 0 to 100 scale, 0 no effect, 100 complete control

C#CCOC(=O)Oc1cnn(C)c(=O)c1-n1nc(-c2ccc(Cl)cc2)cc1C [Compound 58]
Plant response rating, Ryegrass, Italian [1, 12]: 100 | Plant response rating, Ryegrass, Italian [1, 13]: 100 | Ryegrass, Italian plant response rating [1, 14]: 0 | Ryegrass, Italian plant response rating [1, 15]: 100 | Plant response rating, Russian Thistle [2, 16]: 20 | Plant response rating, Russian Thistle [2, 17]: 60 | Russian Thistle plant response rating ([2]; 8 g ai/ha, scale 0 to 100): 0 | Russian Thistle plant response rating ([2]; 16 g ai/ha, scale 0 to 100): 0 | Plant response rating, Galium [3, 16]: 0 | Plant response rating, Galium [3, 17]: 0 | Galium plant response rating ([3]; 8 g ai/ha): 0 | Galium plant response rating ([3]; 16 g ai/ha): 0 | Plant response rating, Cocklebur [4, 18]: 0 | Plant response rating, Cocklebur [4, 12]: 0 | Plant response rating, Cocklebur [4, 13]: 0 | Cocklebur plant response rating ([4]; Preemergence, scale 0 to 100): 0 | Plant response rating, Ragweed [5, 12]: 0 | Plant response rating, Ragweed [5, 13]: 0 | Ragweed plant response rating [5, 14]: 0 | Ragweed plant response rating [5, 15]: 0 | Plant response rating, Corn (corn (Zea mays); [12]): 55 | Plant response rating, Corn (corn (Zea mays); [13]): 80 | Corn plant response rating (corn (Zea mays); [14]): 0 | Corn plant response rating (corn (Zea mays); [15]): 0 | Plant response rating, Nightshade, E. B. [6, 16]: 0 | Plant response rating, Nightshade, E. B. [6, 17]: 0 | Nightshade, E. B. plant response rating ([6]; 8 g ai/ha, scale 0 to 100): 0 | Nightshade, E. B. plant response rating ([6]; 16 g ai/ha, scale 0 to 100): 0 | Plant response rating, Foxtail, Green [7, 12]: 100 | Plant response rating, Foxtail, Green [7, 13]: 100 | Foxtail, Green plant response rating [7, 14]: 100 | Foxtail, Green plant response rating [7, 15]: 100 | Plant response rating, Lambsquarters [8, 12]: 95 | Plant response rating, Lambsquarters [8, 13]: 100 | Lambsquarters plant response rating [8, 14]: 0 | Lambsquarters plant response rating [8, 15]: 0 | Plant response rating, Morningglory [9, 12]: 0 | Plant response rating, Morningglory [9, 13]: 0 | Morningglory plant response rating [9, 14]: 0 | Morningglory plant response rating [9, 15]: 0 | Plant response rating, Surinam Grass [10, 12]: 98 | Plant response rating, Surinam Grass [10, 13]: 100 | Surinam Grass plant response rating [10, 14]: 95 | Surinam Grass plant response rating [10, 15]: 98 | Plant response rating, Oat, Wild (wild oat (Avena fatua); [12]): 80 | Plant response rating, Oat, Wild (wild oat (Avena fatua); [13]): 95 | Oat, Wild plant response rating (wild oat (Avena fatua); [14]): 80 | Oat, Wild plant response rating (wild oat (Avena fatua); [15]): 80 | Plant response rating, Nutsedge, Yellow [11, 12]: 0 | Plant response rating, Nutsedge, Yellow [11, 13]: 0 | Nutsedge, Yellow plant response rating [11, 14]: 0 | Nutsedge, Yellow plant response rating [11, 15]: 0

Cn1ncc(O)c(-c2nn(-c3ccc(Cl)cc3)cc2Cl)c1=O [Compound 28]
Ryegrass, Italian plant response rating [1, 19]: 40 | Plant response rating, Ryegrass, Italian [1, 20]: 55 | Plant response rating, Ryegrass, Italian [1, 21]: 55 | Plant response rating, Ryegrass, Italian [1, 22]: 98 | Plant response rating, Ryegrass, Italian [1, 18]: 80 | Plant response rating, Ryegrass, Italian [1, 23]: 100 | Plant response rating, Ryegrass, Italian [1, 24]: 100 | Ryegrass, Italian plant response rating [1, 14]: 0 | Plant response rating, Russian Thistle [2, 25]: 0 | Plant response rating, Russian Thistle [2, 26]: 0 | Plant response rating, Russian Thistle ([2]; 62 g ai/ha, scale 0 to 100): 0 | Russian Thistle plant response rating ([2]; 8 g ai/ha, scale 0 to 100): 0 | Cocklebur plant response rating ([4]; postemergence, 0-100 scale): 0 | Plant response rating, Cocklebur [4, 20]: 0 | Plant response rating, Cocklebur [4, 21]: 0 | Plant response rating, Cocklebur [4, 22]: 0 | Plant response rating, Cocklebur [4, 18]: 0 | Plant response rating, Cocklebur [4, 23]: 0 | Plant response rating, Cocklebur [4, 24]: 0 | Cocklebur plant response rating ([4]; Preemergence, scale 0 to 100): 0 | Ragweed plant response rating [5, 19]: 0 | Plant response rating, Ragweed [5, 20]: 0 | Plant response rating, Ragweed [5, 21]: 0 | Plant response rating, Ragweed [5, 22]: 0 | Plant response rating, Ragweed [5, 18]: 0 | Plant response rating, Ragweed [5, 23]: 0 | Plant response rating, Ragweed [5, 24]: 0 | Ragweed plant response rating [5, 14]: 0 | Corn plant response rating (corn (Zea mays); [19]): 0 | Plant response rating, Corn (corn (Zea mays); [20]): 0 | Plant response rating, Corn (corn (Zea mays); [21]): 0 | Plant response rating, Corn (corn (Zea mays); [22]): 40 | Plant response rating, Corn (corn (Zea mays); [18]): 0 | Plant response rating, Corn (corn (Zea mays); [23]): 55 | Plant response rating, Corn (corn (Zea mays); [24]): 90 | Corn plant response rating (corn (Zea mays); [14]): 0 | Plant response rating, Nightshade, E. B. [6, 25]: 0 | Plant response rating, Nightshade, E. B. [6, 26]: 0 | Plant response rating, Nightshade, E. B. ([6]; 62 g ai/ha, scale 0 to 100): 0 | Nightshade, E. B. plant response rating ([6]; 8 g ai/ha, scale 0 to 100): 0 | Foxtail, Green plant response rating [7, 19]: 60 | Plant response rating, Foxtail, Green [7, 20]: 65 | Plant response rating, Foxtail, Green [7, 21]: 98 | Plant response rating, Foxtail, Green [7, 22]: 100 | Plant response rating, Foxtail, Green [7, 18]: 100 | Plant response rating, Foxtail, Green [7, 23]: 100 | Plant response rating, Foxtail, Green [7, 24]: 100 | Foxtail, Green plant response rating [7, 14]: 30 | Kochia plant response rating (kochia (Kochia scoparia); [19]): 0 | Plant response rating, Kochia (kochia (Kochia scoparia); 16 g ai/ha, scale 0 to 100): 0 | Plant response rating, Kochia (kochia (Kochia scoparia); 31 g ai/ha, scale 0 to 100, 0 no effect, 100 complete control): 0 | Plant response rating, Kochia (kochia (Kochia scoparia); 62 g ai/ha, scale 0 to 100, 0 no effect, 100 complete control): 0 | Lambsquarters plant response rating [8, 19]: 0 | Plant response rating, Lambsquarters [8, 20]: 0 | Plant response rating, Lambsquarters [8, 21]: 0 | Plant response rating, Lambsquarters [8, 22]: 0 | Plant response rating, Lambsquarters [8, 18]: 95 | Plant response rating, Lambsquarters [8, 23]: 95 | Plant response rating, Lambsquarters [8, 24]: 98 | Lambsquarters plant response rating [8, 14]: 80 | Morningglory plant response rating [9, 19]: 0 | Plant response rating, Morningglory [9, 20]: 0 | Plant response rating, Morningglory [9, 21]: 0 | Plant response rating, Morningglory [9, 22]: 0 | Plant response rating, Morningglory [9, 18]: 0 | Plant response rating, Morningglory [9, 23]: 0 | Plant response rating, Morningglory [9, 24]: 0 | Morningglory plant response rating [9, 14]: 0 | Surinam Grass plant response rating [10, 19]: 65 | Plant response rating, Surinam Grass [10, 20]: 65 | Plant response rating, Surinam Grass [10, 22]: 90 | Plant response rating, Surinam Grass [10, 18]: 65 | Plant response rating, Surinam Grass [10, 23]: 98 | Plant response rating, Surinam Grass [10, 24]: 100 | Surinam Grass plant response rating [10, 14]: 0 | Oat, Wild plant response rating (wild oat (Avena fatua); [19]): 45 | Plant response rating, Oat, Wild (wild oat (Avena fatua); [20]): 80 | Plant response rating, Oat, Wild (wild oat (Avena fatua); [21]): 95 | Plant response rating, Oat, Wild (wild oat (Avena fatua); [22]): 98 | Plant response rating, Oat, Wild (wild oat (Avena fatua); [18]): 50 | Plant response rating, Oat, Wild (wild oat (Avena fatua); [23]): 70 | Plant response rating, Oat, Wild (wild oat (Avena fatua); [24]): 90 | Oat, Wild plant response rating (wild oat (Avena fatua); [14]): 0 | Nutsedge, Yellow plant response rating [11, 19]: 0 | Plant response rating, Nutsedge, Yellow [11, 20]: 0 | Plant response rating, Nutsedge, Yellow [11, 21]: 0 | Plant response rating, Nutsedge, Yellow [11, 22]: 0 | Plant response rating, Nutsedge, Yellow [11, 18]: 0 | Plant response rating, Nutsedge, Yellow [11, 23]: 0 | Plant response rating, Nutsedge, Yellow [11, 24]: 0 | Nutsedge, Yellow plant response rating [11, 14]: 0
